13 molecules from ChEMBL document CHEMBL1124556, “Biphenylcarboxamide derivatives as antagonists of platelet-activating factor” (J Med Chem, 1989) can be followed below.

What is called inhibition in vivo is the drop in the measured response relative to a control, in per cent. The low end stands for little suppression, the high end for strong suppression.

Common to all, as to type: functional
Test [1] relates to Cavia porcellus. As to the kind of experiment: Platelet-activating factor-antagonist activity was assessed in guinea pig bronchoconstriction assay through peroral administration at a dose of 50 mg/kg at 2 hr. To be noted: Lung, route oral.
The test system of test [2] is Cavia porcellus. The test can be described thus: 50% inhibitory dose in a guinea pig bronchoconstriction assay of intravenous administration. To be noted: Lung, read-out: ID50 (the source's name).
The subject of test [3] is Cavia porcellus. As to the kind of experiment: Platelet-activating factor-antagonist activity was assessed in guinea pig bronchoconstriction assay through peroral administration at a dose of 50 mg/kg at 6 hr. The settings on record: Lung, route oral.
Test [4] concerns Cavia porcellus. As to the kind of experiment: 50% inhibitory dose in a guinea pig bronchoconstriction assay through peroral administration. To be noted: Lung, po, read-out: ID50 (the source's name).
Test [5] has as its system Cavia porcellus. The test can be described thus: 50% inhibitory dose in a guinea pig bronchoconstriction assay upon intravenous administration. To be noted: Lung, read-out: ID50 (the source's name).
Test [6] deals with Cavia porcellus. As to the kind of experiment: 50%inhibitory dose in a guinea pig bronchoconstriction assay through peroral administration. The settings on record: Lung, po, read-out: ID50 (the source's name).

As for `O=C(NCCCCc1cccnc1)c1ccc(-c2ccccc2)c(-c2ccccc2)c1`, the inhibition in vivo at 50 mg/kg in the test on Cavia porcellus [1] is 33%. Moreover, the ED50 in the test with Cavia porcellus [2] was 3.2 mg/kg.
Regarding `COc1ccc(-c2ccc(C(=O)NCCCCc3cccnc3)cc2Br)cc1OC`, the figures for the inhibition in vivo at 50 mg/kg with Cavia porcellus [3] and with Cavia porcellus [1] were 1% and 74%, respectively. Also, the ED50 was found to be 0.4 mg/kg with Cavia porcellus [2] and 19 mg/kg with Cavia porcellus [4].
As to `CCc1cc(C(=O)N[C@H](C)CCCc2cccnc2)ccc1-c1ccc(OC)c(OC)c1`, the inhibition in vivo at 50 mg/kg in the test on Cavia porcellus [3] is 23%; with Cavia porcellus [1], 89%. For the same molecule, the ED50 stood at 0.34 mg/kg in the test with Cavia porcellus [2] and 24 mg/kg in the test on Cavia porcellus [4].
The like results for `CCCCc1cc(C(=O)N[C@H](C)CCCc2cccnc2)ccc1-c1ccc(OC)c(OC)c1` were, in that order, 55%, 91%, 0.8 mg/kg and 25 mg/kg.
`COc1ccc(-c2ccc(C(S)=N[C@H](C)CCCc3cccnc3)cc2)cc1OC`: 50 mg/kg produced 37% inhibition in vivo in the test on Cavia porcellus [1]. Also, the ED50 with Cavia porcellus [2] was determined as 0.31 mg/kg.
As to `COc1ccc(-c2ccc(C(=O)N[C@H](C)CCCc3cccnc3)cc2Br)cc1OC`, the figures for the inhibition in vivo at 50 mg/kg in the test on Cavia porcellus [3] and in the test on Cavia porcellus [1] were 59% and 97%, respectively. Further, the ED50 in the test with Cavia porcellus [2] stood at 0.4 mg/kg; in the test with Cavia porcellus [4] it was 14 mg/kg.
The like results for `COc1ccc(-c2ccc(C(=O)N[C@H](C)CCCc3cccnc3)cc2)cc1OC` were, in that order, 29%, 88%, 0.62 mg/kg and 30 mg/kg.
The like results for `COc1ccc(-c2ccc(C(=O)N[C@H](C)CCCc3cccnc3)cc2[N+](=O)[O-])cc1OC` were, in that order, 36%, 89%, 0.19 mg/kg and 22 mg/kg.
With `COc1ccc(-c2ccc(C(=O)NCCCCc3cccnc3)cc2[N+](=O)[O-])cc1OC`, the figures for the inhibition in vivo at 50 mg/kg in the test with Cavia porcellus [3] and with Cavia porcellus [1] were 4% and 62%, respectively. The ED50 in the test on Cavia porcellus [2] is 0.76 mg/kg; with Cavia porcellus [4] it was 39 mg/kg.
The like results for `C=CCc1cc(C(=O)N[C@H](C)CCCc2cccnc2)ccc1-c1ccc(OC)c(OC)c1` were, in that order, 26%, 93%, 0.33 mg/kg and 24 mg/kg.
Molecule `COc1cccc(-c2ccc(C(=O)N[C@H](C)CCCc3cccnc3)cc2)c1` displayed an inhibition in vivo at 50 mg/kg in the test with Cavia porcellus [1] of 44%. In the test on Cavia porcellus [2], the ED50 was 0.45 mg/kg.
In the test on Cavia porcellus [1], `COc1cccc(-c2ccc(C(=O)NCCCCc3cccnc3)cc2)c1` showed an inhibition in vivo at 50 mg/kg of 55%. In addition, the ED50 turned out to be 0.51 mg/kg with Cavia porcellus [5] and 50 mg/kg in the test with Cavia porcellus [6].
Regarding `COc1ccc(-c2ccc(C(=O)NCCCCc3cccnc3)cc2OC)cc1OC`, the inhibition in vivo at 50 mg/kg in the test with Cavia porcellus [3] came to 13%; in the test with Cavia porcellus [1], 64%. In the test with Cavia porcellus [2], the ED50 turned out to be 0.52 mg/kg.
